{"source": "patent US20160310621A1", "about": "“IMAGING PROBES, FORMULATIONS, AND USES THEREOF” (priority 2015, published 2016)", "tested_on": "rat model of arthritis (bone uptake)", "assay": "PET imaging in rat HKMT/IFA model of arthritis", "assay_type": "in vivo", "excerpt": "Single modality BP imaging probes with ^18F were generated according to the Schemes described in FIGS. 6A-6B and FIG. 7. […] A rat (Lewis rats, 6-12 weeks of age) model of arthritis was generated by subcutaneous injection of heat killed Mycobacterium tuberculosis (strain H37Ra) suspended in incomplete Freund's adjuvant (HKMT/IFA). […] The swelling was easily identifiable by day 16 post injection, but undetectable in the animals on day 7 (FIGS. 12A-12D).\nRats were given a total of about 500 μCi (about 0.5 nmole) of freshly prepared ^18F-RIS-SFB (single modality BP conjugated imaging probe) by i.v. injection. PET imaging was conducted using a GE eXplore Vista small animal PET system.", "note": "“Also recorded” adds a separate entry of the source."}
{"smiles": "[18F-].[Na+]", "note": "[Na^18F]", "values": [{"measurement": "time at which increased accumulation in bone is seen by PET", "setting": "RA model rats, post induction", "value": "~18", "unit": "days"}, {"measurement": "detection of early bone involvement in RA by PET", "setting": "early time point (day 7), before clinical signs", "value": "fails to detect the earliest signs of bone involvement in RA; also recorded: does not detect the early bone involvement in RA at day 7"}]}
